Tests used:
HS-PSS [1] = assay: relative IC50 (inflection point of fitted dose-response curve, CellTox-Green cytotoxicity, 72 h; top asymptote may be below 50%); higher = less potent
Outline: (§1)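 MPNST cell lines and primary human Schwann cells were incubated 72 h at 37 °C in 384-well plates holding five 10-fold compound dilutions. CellTox-Green was added before seeding at a final 1:1000 dilution and reported fluorescence from DNA released by disrupted cells. Signals were scaled to vehicle and positive-control wells, and cultures failing plate quality control were dropped. Drug sensitivity score and relative IC50 come from four-parameter logistic fits, with IC50 censored at the top concentration.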

HSC1 [2] = assay: as above
Outline: as §1

ST8814 [3] = assay: as above
Outline: as §1

HS-PSS [4] = assay: relative IC50 (inflection point of fitted dose-response curve, CellTiter-Glo viability, 72 h; top asymptote may be below 50% inhibition); higher = less potent
Outline: (§2)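 Viability was scored by CellTiter-Glo ATP luminescence, scaled from vehicle to positive-control wells, with duplicates averaged where present. The cells, MPNST lines and primary human Schwann cells at 750–1000 per well, sat 72 h at 37 °C, 5% CO2, in 384-well plates preprinted with each compound at five concentrations in 10-fold steps. Four-parameter logistic fits were run on the data. These fits give drug sensitivity score and relative IC50 censored at the top concentration, and percent inhibition is reported at the top concentration.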

HS-Sch-2 = assay: as above
Outline: as §2

HSC1 [5] = assay: as above
Outline: as §2

HSC2 [6] = assay: as above
Outline: as §2

S1507-2 = assay: as above
Outline: as §2

S462 = assay: as above
Outline: as §2

ST8814 [7] = assay: as above
Outline: as §2

STS26T [8] = assay: as above
Outline: as §2

YST-1 = assay: as above
Outline: as §2

HSC2 [9] = assay: relative IC50 (inflection point of fitted dose-response curve, CellTox-Green cytotoxicity, 72 h; top asymptote may be below 50%); higher = less potent
Outline: as §1

STS26T [10] = assay: as above
Outline: as §1

SMILES | relative IC50 (HS-PSS [1]) | relative IC50 (HSC1 [2]) | relative IC50 (ST8814 [3]) | relative IC50 (HS-PSS [4]) | relative IC50 (HS-Sch-2) | relative IC50 (HSC1 [5]) | relative IC50 (HSC2 [6]) | relative IC50 (S1507-2) | relative IC50 (S462) | relative IC50 (ST8814 [7]) | relative IC50 (STS26T [8]) | relative IC50 (YST-1) | relative IC50 (HSC2 [9]) | relative IC50 (STS26T [10])
CN(C)CCN1C(=O)c2cccc3cc(N)cc(c23)C1=O [Amonafide] | 2150 nM | > 10000 nM | 3150 nM | 2410 nM | 1700 nM | 1350 nM | 1860 nM | 1360 nM | 1650 nM | 1690 nM | 2240 nM | 1020 nM | – | –
Nc1nc2[nH]cnc2c(=S)[nH]1 [Thioguanine] | > 10000 nM | > 10000 nM | – | 1450 nM | 1120 nM | – | > 10000 nM | 2270 nM | 1200 nM | 642 nM | 717 nM | 1370 nM | > 10000 nM | 2920 nM
FC(F)c1nc2ccccc2n1-c1nc(N2CCOCC2)nc(N2CCOCC2)n1 [ZSTK474] | > 10000 nM | > 10000 nM | > 10000 nM | 831 nM | 1050 nM | 876 nM | 692 nM | 251 nM | 582 nM | 658 nM | 244 nM | 248 nM | – | –
C[C@]12O[C@H](C[C@]1(O)CO)n1c3ccccc3c3c4c(c5c6ccccc6n2c5c31)CNC4=O [Lestaurtinib] | > 1000 nM | – | 290 nM | 87.2 nM | 112 nM | 29.3 nM | 24.9 nM | 101 nM | 93.8 nM | 130 nM | 155 nM | 59.8 nM | – | –
Cn1c(=O)c(F)c(Nc2ccc(I)cc2F)c2c(=O)n(C[C@@H](O)CO)cnc21 [TAK-733] | > 1000 nM | > 1000 nM | 218 nM | 162 nM | 152 nM | 97.3 nM | 90.6 nM | 85 nM | 58.5 nM | 87.9 nM | 25.1 nM | – | > 1000 nM | –
COc1cc2nccc(Oc3ccc(NC(=O)Nc4cc(C)on4)c(Cl)c3)c2cc1OC [Tivozanib] | > 10000 nM | – | 1900 nM | 3730 nM | 3870 nM | 1710 nM | 1790 nM | 18.9 nM | 828 nM | > 10000 nM | 1870 nM | 2260 nM | > 10000 nM | 1890 nM
COc1cc(Nc2ncc(F)c(Nc3ccc4c(n3)NC(=O)C(C)(C)O4)n2)cc(OC)c1OC [Tamatinib] | > 10000 nM | > 10000 nM | – | > 10000 nM | – | 665 nM | 1590 nM | > 10000 nM | > 10000 nM | – | – | > 10000 nM | – | –
Clc1ccc(C(c2ccccc2Cl)C(Cl)Cl)cc1 (stereo not drawn) [Mitotane] | > 10000 nM | > 10000 nM | > 10000 nM | > 10000 nM | > 10000 nM | > 10000 nM | > 10000 nM | > 10000 nM | > 10000 nM | – | > 10000 nM | > 10000 nM | > 10000 nM | > 10000 nM
Nc1ccn([C@@H]2O[C@H](CO)[C@@H](O)[C@@H]2O)c(=O)n1 [Cytarabine] | 336 nM | 2180 nM | 786 nM | 479 nM | 688 nM | 283 nM | 290 nM | 1520 nM | 163 nM | 689 nM | 236 nM | 210 nM | 1960 nM | –
CC1(C)CNc2cc(NC(=O)c3cccnc3NCc3ccncc3)ccc21 [Motesanib] | > 10000 nM | > 10000 nM | > 10000 nM | > 10000 nM | > 10000 nM | > 10000 nM | – | > 10000 nM | > 10000 nM | > 10000 nM | > 10000 nM | – | > 10000 nM | > 10000 nM
COc1cccc2c1C(=O)c1c(O)c3c(c(O)c1C2=O)C[C@@](O)(C(=O)CO)C[C@@H]3O[C@H]1C[C@H](N)[C@H](O)[C@H](C)O1 [Doxorubicin] | 367 nM | – | > 1000 nM | 199 nM | 133 nM | 83.2 nM | 109 nM | 72.5 nM | 71.2 nM | 130 nM | 81.2 nM | 54.9 nM | 346 nM | –
Nc1ncn([C@@H]2O[C@H](CO)[C@@H](O)[C@H]2O)c(=O)n1 [Azacitidine] | > 10000 nM | > 10000 nM | > 10000 nM | – | – | 2340 nM | 3320 nM | > 10000 nM | 2580 nM | – | 3840 nM | – | > 10000 nM | > 10000 nM
Nc1ncnc2c1nc(Cl)n2[C@@H]1O[C@H](CO)[C@@H](O)[C@H]1O [8-chloro-adenosine] | > 50000 nM | > 50000 nM | – | 6590 nM | 2960 nM | 3550 nM | 3820 nM | 1890 nM | 1590 nM | 1240 nM | 2800 nM | 2580 nM | > 50000 nM | 2820 nM
Cn1cnc2c(F)c(Nc3ccc(Br)cc3Cl)c(C(=O)NOCCO)cc21 [Selumetinib] | > 10000 nM | > 10000 nM | – | – | 2030 nM | 2600 nM | 1710 nM | 301 nM | 736 nM | 727 nM | 240 nM | > 10000 nM | > 10000 nM | > 10000 nM
NC(=O)c1cccc2cn(-c3ccc(C4CCCNC4)cc3)nc12 (stereo not drawn) [MK-4827] | – | > 10000 nM | 3040 nM | – | – | 2110 nM | – | 1680 nM | 1400 nM | 1650 nM | 1700 nM | – | > 10000 nM | –
CNC(=O)c1ccc(N2C(=S)N(c3cnc(C#N)c(C(F)(F)F)c3)C(=O)C23CCC3)cc1F [ARN 509] | > 10000 nM | > 10000 nM | > 10000 nM | – | – | > 10000 nM | > 10000 nM | > 10000 nM | > 10000 nM | > 10000 nM | > 10000 nM | – | > 10000 nM | –

Source: the supplement of paper PMC5579334
